One compound from US20150203526A1, “NOVEL 19-NOR-STEROIDS AND THEIR USE FOR TREATING PROGESTERONE- DEPENDENT CONDITIONS” (REPROS THERAPEUTICS INC., priority 2010, published 2015) can be followed below.

One series deals with animal hepatocytes. Nature of the series: Metabolism in primary cultures of animal hepatocytes. It is filed as in vitro ADME. On the procedure:
Pharmacokinetic studies performed on participating subjects detected a high Cmax and a Tmax at 1-2 hours following administration. […] Metabolism of CDB-4124 by the liver provides the opportunity for liver damage and greatly reduces the concentration of the antiprogestin before it reaches the systemic circulation. Thus, alternative routes of administration of antiprogestins that avoid first pass metabolism such as, without limitation, intravenous, intramuscular, and sublingual, should allow antiprogestins to be absorbed directly into the systemic circulation and thereby provide a method for treating progestone-dependent conditions while avoiding liver toxicity. Administration routes which avoid first pass metabolism may also require less drug per dose to achieve the same therapeutic benefit relative to oral administration.

The next series relates to liver aminotransferases. Nature of the series: Clinical trials of daily oral CDB-4124 (Proellex): liver toxicity / liver enzymes. It is filed as in vivo, human. The method, then:
The maximum concentrations of CDB-4124 and its mono-demethylated metabolite (CDB-4453) for the 12.5 mg dose were 25% of the 50 mg dose. All liver toxicities resolved in those women that returned for safety follow-ups, including those subjects that developed liver-associated serious adverse effects (SAEs).
To date, over 600 patients, including women with confirmed cases of endometriosis or uterine fibroids, have participated in double blind and open label clinical trials in which patients were administered daily oral capsules containing doses of 12.5 mg, 25 mg or 50 mg CDB-4124 (Proellex) for over one month. Of these patients, about 500 received Proellex and about 130 received a placebo. Of the patients receiving Proellex, about 190 received a dose of 50 mg CDB-4124 per day, about 260 received a dose of 25 mg CDB-4124 per day and about 55 received a dose of 12.5 mg per day.
Liver enzymes were frequently monitored in participating subjects. The liver enzyme level at which the clinical trials would be discontinued was set at an increase in liver aminotransferases greater than, or equal to three times the Upper Limit of Normal (≧3×ULN).
Of the nine subjects with a confirmed increase in liver enzymes≧3×ULN, seven were severe enough elevations to be reported to the FDA as SAEs. One of these seven subjects had been receiving a dose of 25 mg CDB-4124 per day; the remaining six subjects had been receiving a dose of 50 mg CDB-4124 per day. Liver enzymes≧3×ULN persisted in five of the nine subjects with a confirmed increase in liver enzymes≧3×ULN. These five subjects had previously been dosed with the 50 mg dose. One of these subjects is receiving oral medication for treatment of their liver condition. Clinical trials involving CDB-4124 at all doses were voluntarily suspended as a result of these SAEs and were subsequently placed on clinical hold by the United States Food and Drug Administration for safety reasons.

The subject of series [1] is progesterone-induced endometrial proliferation. Nature of the series: Anti-Clauberg study, subcutaneous vs oral. The class given is in vivo, rabbits. An excerpt:
FIG. 3 illustrates a comparison of the inhibition of progesterone-induced endometrial proliferation in estradiol-primed immature rabbits following subcutaneous injection and oral administration of CDB-4124
To determine whether the low circulating levels of CDB-4124 when administered locally could have any impact predictive of efficacy, an anti-Clauberg study was run in which immature estradiol-primed rabbits were coadministered progesterone and various doses of CDB-4124 by either subcutaneous or oral administration. At least 3 different highly trained individuals evaluated the rabbit uterus for glandular growth, for complexity and overall progesterone-induced “development”. The inhibition (by percentage) of progesterone-induced endometrial proliferation at each dose was assayed. […] However, maximal inhibition required a ˜8-fold increase in dosage when administered orally (i.e. 8 mg/kg). Importantly 8 mg/kg corresponds closely to the 50 mg/day dose of CDB-4124 administered to the female subjects described in Example 3.

A short description of series [2]: Oral vs vaginal pharmacokinetics in beagles (25 mg). The class given is in vivo. The method, then: FIG. 1 illustrates a comparison of the Cmax (peak serum concentration) and area under the curve (AUC) following oral and vaginal administration of CDB-4124 or CDB-4453 at a 25 mg dose in beagles.
Beagles were administered 25 mg of CDB-4124 or CDB-4453 (the monodemethylated metabolite of CDB-4124) formulated as either a micronized powder or a vaginal suppository. […] Moreover, systemic exposure of the drug is much lower when administered locally (compare AUC for CDB-4124 and CDB-4453 when administered vaginally vs. orally).

In series [3] the test system is progesterone-induced endometrial proliferation. In words: Anti-Clauberg study, vaginal vs oral (McPhail index). The class given is in vivo, rabbits. On the procedure:
FIG. 4 compares the antiprogestational effects of three doses of CDB-4124 when delivered orally versus when delivered to the vaginal mucosa of estradiol-primed immature rabbits in the presence of progesterone, as measured by a decrease in the McPhail index. Treatment with progesterone alone (vehicle control) provided a baseline measurement of progestational activity.
Another anti-Clauberg study was run in which immature estradiol-primed rabbits were administered progesterone alone (vehicle control) or were co-administered progesterone and three doses of CDB-4124 by either vaginal or oral administration. The inhibition of progesterone-induced endometrial proliferation at each dose was assayed. FIG. 3 illustrates the decrease in the McPhail index following increasing doses of CDB-4124 administered by either route. Maximal inhibition (i.e. a decrease in the McPhail index to 1.5) occurred at 0.2 mg/kg CDB-4124 when administered vaginally, compared to 0.8 mg/kg when administered orally.

The test system of series [4] is DMBA-induced breast tumors. Nature of the series: DMBA-induced breast tumor pre-clinical study. It is filed as in vivo, rodents. The settings on record: subcutaneous injection. The method, then: Pre-clinical studies were performed on rodents with breast tumors induced by 7,12-Dimethylbenz(a)anthracene (DMBA).

Molecules are shown by their SMILES.

Regarding `COCC(=O)[C@@]1(OC(C)=O)CC[C@H]2[C@@H]3CCC4=CC(=O)CCC4=C3[C@@H](c3ccc(N(C)C)cc3)C[C@@]21C` [CDB-4124], in the series with animal hepatocytes, the “Production of the mono-demethylated metabolite” value is “rapidly produce the mono-demethylated metabolite”. In addition, the “Subjects with elevations reported as SAEs” value in the series with liver aminotransferases (25 mg CDB-4124 per day) was “One”; with liver aminotransferases (50 mg CDB-4124 per day) it was “six”. Besides, the “Subjects with elevations severe enough to be reported as SAEs” value in the series on liver aminotransferases (all doses) is “seven”. The “Subjects found to exhibit an increase in liver enzymes ≧3×ULN” value in the series with liver aminotransferases (all doses, before repeat test) was “thirteen”. In addition, the “Subjects with confirmed increase in liver enzymes ≧3×ULN” value in the series on liver aminotransferases (all doses, confirmed by repeat test in 48 hours) is given as “nine”. Besides, the “Adverse liver toxicity signals” value in the series on liver aminotransferases (oral, 12.5 mg) is recorded as “no adverse liver toxicity signals different from placebo”. Also, the “Liver toxicity effects at 25 mg/day compared with 50 mg/day” value with liver aminotransferases (oral, 25 mg/day vs 50 mg/day) is “significantly lower in frequency and intensity”. Further, the “Women exhibiting severe liver toxicity” value with liver aminotransferases (oral, 50 mg/day) is listed as 3-4%. Further, the “Subjects in whom liver enzymes ≧3×ULN persisted” value in the series with liver aminotransferases (previously dosed with the 50 mg dose) is given as “five”. In series [1] (oral), the “Dose required for maximal inhibition” value was determined as 8 mg/kg. In series [1] (oral vs subcutaneous), the “Increase in dosage required for maximal inhibition, oral vs subcutaneous” value is approximately 8 fold. Moreover, the “Dose at which maximal inhibition was observed” value in series [1] (subcutaneous) was “less than 1 mg/kg”. In series [2] (oral micronized powder), the “Metabolism after peak plasma concentration” value is reported as “rapidly metabolized”. For the same compound, in series [2] (vaginal suppository), the Metabolism result is “metabolized slowly”. In addition, the “Peak plasma concentrations (Cmax)” value in series [2] (vaginal suppository) is on record as “relatively low”. The “Systemic exposure (AUC), local vs oral” value in series [2] (vaginal vs oral) is recorded as “much lower”. The “McPhail index at maximal inhibition” value in series [3] (0.2 mg/kg vaginal or 0.8 mg/kg oral) is 1.5. In addition, the “Dose at which maximal inhibition occurred” value in series [3] (oral) was determined as 0.8 mg/kg; in series [3] (vaginal) it was 0.2 mg/kg. Besides, the “Antiprogestational activity of vaginal delivery relative to the same oral dose” value in series [3] (vaginal vs oral) was “four times the antiprogestational activity”. For the same compound, the “Effect on quantity and size of DMBA-induced breast tumors” value in series [4] was “effective in reducing the quantity and size of DMBA-induced breast tumors”.
